Laboratory results from patent publication US20240261416A1, “SYNTHESIS OF NOVEL CEREBLON E3 LIGASE LIGANDS, COMPOUNDS FORMED THEREBY, AND PHARMACEUTICAL COMPOSITIONS CONTAINING THEM” (Wisconsin Alumni Research Foundation, priority 2023, published 2024).
Read-outs that look alike come from different tables or passages of the source.

Assays:
caspase 3 cleavage = test: Western blot of caspase 3 and cleaved caspase 3 in MV4; 11 cells; settings: at 10 nm to 10 µM concentrations
MV4; 11 cells [1] = test: flow cytofluorimetric cell cycle analysis; assay type: cell-based, human; settings: 48 h
Method: (§1) FIGS. 9A-9D. Functional studies of the PROTACs including anti-proliferation, apoptosis, G1 phase arrest, and reduced population in S phase. (FIG. 9A) AlamarBlue™ Cell Viability. […] (FIG. 9B) MV4; 11 cells were treated by indicated dosage of 13 for 48 h followed by flow cytofluorimetric cell cycle analysis. (FIGS. 9C and 9D) MV4; 11 cells were treated by indicated dosage of 13 for 48 h followed by flow cytofluorimetric apoptosis analyses.
(§2) Flow Cytometry Cell apoptosis and cell cycle were detected by Attune Flow cytometer (Thermo Fisher). Cells were seeded in a 6-well plate and treated with the indicated concentrations of compounds for 48 h. For samples for cell apoptosis detection, cells were harvested and incubated in Annexin V-FITC and PI reagents each for 15 minutes (Annexin V-FITC apoptosis detection kit, Invitrogen). For the samples for cell cycle detection, cells were fixed in 70% cold ethanol overnight and stained with PI (500 μg/ml) for 15 minutes. Flow data were analyzed using Flowjo software.

MV4; 11 cells [2] = test: flow cytofluorimetric apoptosis analysis; assay type: cell-based, human; settings: 48 h
Method: as §1, §2

[3] = in-vivo in humans; cited from earlier work
[4] = in human blood; cited from earlier work

SMILES	caspase 3 cleavage, in words (caspase 3 cleavage)	cell cycle effect, in words (MV4; 11 cells [1])	cell apoptosis, in words (MV4; 11 cells [2])	racemization half-life [3] [h]	racemization half-life [4] [h]
Cc1sc2c(c1C)C(c1ccc(Cl)cc1)=N[C@@H](CC(=O)NC1CCN(C(=O)COc3cccc(N4CCC(=O)NC4=O)c3C)CC1)c1nnc(C)n1-2 [Compound 13, (S)-2-(4-(4-chlorophenyl)-2,3,9-trimethyl-6H-thieno[3,2-f][1,2,4]triazolo[4,3-a][1,4]diazepin-6-yl)-N-(1-(2-(3-(2,4-dioxotetrahydropyrimidin-1(2H)-yl)-2-methylphenoxy)acetyl)piperidin-4-yl)acetamide]	successful in inducing caspase 3 cleavage	induce G1 phase arrest, decrease the cell population in S phase	induce cell apoptosis in a dose-dependent manner	–	–
O=C1CCC(N2C(=O)c3ccccc3C2=O)C(=O)N1 (centres unmarked) [thalidomide]	–	–	–	~5.0	~2.0
